Data: US10597388B2, “Pyridazinone herbicides” (FMC CORPORATION, priority 2014, dated 2020)

How the values were obtained:
Type in all cases: in vivo
corn (Zea mays) [1] = experiment: Test A greenhouse herbicide test, pre- and postemergence; settings: Postemergence
Method in brief: (§1)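 Seeds sown in loam–sand blend got a preemergence directed soil spray of compound in non-phytotoxic solvent with surfactant. Postemergence treatment was given at 2–10 cm, one- to two-leaf stage. After ~10 d in greenhouse, injury was rated visually vs untreated controls, 0 (no effect) to 100 (complete control).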

[2] = tested on: foxtail, giant (giant foxtail, Setaria faberii); experiment: as above
Method in brief: as §1

[3] = tested on: ryegrass, Italian (Italian ryegrass, Lolium multiflorum); experiment: as above
Method in brief: as §1

[4] = tested on: wheat (Triticum aestivum); experiment: as above; settings: Postemergence
Method in brief: as §1

[5] = tested on: blackgrass (Alopecurus myosuroides); experiment: Test C greenhouse herbicide test, pre- and postemergence
Method in brief: (§2)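 Each species was treated both before emergence, in a loam–sand soil mix, and after emergence, as 1- to 4-leaf seedlings in peat-based potting medium. Plants stayed in the greenhouse 13 to 15 d, then were scored from 0 (no effect) to 100 (complete control) relative to controls.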

corn (Zea mays) [6] = experiment: as above
Method in brief: as §2

[7] = tested on: nutsedge, yellow (yellow nutsedge, Cyperus esculentus); experiment: as above
Method in brief: as §2

[8] = tested on: pigweed (Amaranthus retroflexus); experiment: as above
Method in brief: as §2

soybean (Glycine max) = experiment: as above
Method in brief: as §2

[9] = tested on: velvetleaf (Abutilon theophrasti); experiment: as above
Method in brief: as §2

[10] = tested on: waterhemp (common waterhemp, Amaranthus rudis); experiment: as above
Method in brief: as §2

[11] = 125 g ai/ha, 0 to 100 scale where 0 is no effect and 100 is complete control
[12] = 500 g ai/ha, visual rating after approx. 10 d, 0 to 100 scale (0 no effect, 100 complete control)
[13] = Postemergence, 125 g ai/ha, 0 to 100 scale where 0 is no effect and 100 is complete control
[14] = Postemergence, 500 g ai/ha, visual rating after approx. 10 d, 0 to 100 scale (0 no effect, 100 complete control)
[15] = Preemergence, 500 g ai/ha, 0 to 100 scale where 0 is no effect and 100 is complete control
[16] = Postemergence, 31 g ai/ha, scale 0 to 100 (0 no effect, 100 complete control)
[17] = Postemergence, 62 g ai/ha, 0 to 100 scale (0 no effect, 100 complete control)
[18] = Postemergence, 250 g ai/ha, scale 0 to 100, 0 no effect, 100 complete control, 13 to 15 d
[19] = Preemergence, 31 g ai/ha, scale 0 to 100, 0 is no effect, 100 is complete control
[20] = Preemergence, 62 g ai/ha, scale 0 to 100, 0 is no effect, 100 is complete control
[21] = Preemergence, 125 g ai/ha, scale 0 to 100, 0 is no effect, 100 is complete control
[22] = Preemergence, 250 g ai/ha, scale 0 to 100, 0 no effect, 100 complete control
[23] = postemergence, 125 g ai/ha, scale 0 to 100, 0 no effect, 100 complete control
[24] = 125 g ai/ha, 0 to 100 scale, 0 no effect, 100 complete control
[25] = Postemergence, 125 g ai/ha, 0 to 100 scale, 0 no effect, 100 complete control
[26] = Preemergence, 125 g ai/ha, visual injury rating, 0 to 100 scale (0 no effect, 100 complete control), approx. 10 d
[27] = Postemergence, 250 g ai/ha, scale 0 to 100, 0 is no effect, 100 is complete control

Compound: COC(=O)Oc1c(C)nn(C)c(=O)c1-c1ccc(Br)c2ccccc12 [Compound 145]
- Plant response rating, Corn (corn (Zea mays) [1]; [11]): 20
- Plant response rating, Corn (corn (Zea mays) [1]; [12]): 60
- Plant response rating, Foxtail, Giant [2, 13]: 20
- Plant response rating, Foxtail, Giant [2, 14]: 80
- Foxtail, Giant plant response rating ([2]; Preemergence, 125 g ai/ha, 0 to 100 scale where 0 is no effect and 100 is complete control): 30
- Plant response rating, Foxtail, Giant [2, 15]: 90
- Plant response rating, Ryegrass, Italian [3, 13]: 100
- Plant response rating, Ryegrass, Italian [3, 14]: 100
- Plant response rating, Ryegrass, Italian [3, 15]: 100
- Plant response rating, Wheat [4, 11]: 20
- Plant response rating, Wheat [4, 12]: 30
- Plant response rating, Blackgrass [5, 16]: 5
- Blackgrass plant response rating [5, 17]: 0
- Plant response rating, Blackgrass [5, 18]: 90
- Plant response rating, Blackgrass [5, 19]: 10
- Plant response rating, Blackgrass [5, 20]: 30
- Plant response rating, Blackgrass [5, 21]: 60
- Blackgrass plant response rating [5, 22]: 60
- Blackgrass plant response rating [5, 23]: 30
- Plant response rating, Corn (corn (Zea mays) [6]; [16]): 10
- Corn plant response rating (corn (Zea mays) [6]; [17]): 5
- Plant response rating, Corn (corn (Zea mays) [6]; [18]): 10
- Plant response rating, Corn (corn (Zea mays) [6]; [19]): 0
- Plant response rating, Corn (corn (Zea mays) [6]; [20]): 0
- Plant response rating, Corn (corn (Zea mays) [6]; [21]): 0
- Corn plant response rating (corn (Zea mays) [6]; [22]): 15
- Corn plant response rating (corn (Zea mays) [6]; [23]): 5
- Plant response rating, Nutsedge, Yellow [7, 16]: 70
- Nutsedge, Yellow plant response rating [7, 17]: 90
- Plant response rating, Nutsedge, Yellow [7, 18]: 95
- Plant response rating, Nutsedge, Yellow [7, 19]: 35
- Plant response rating, Nutsedge, Yellow [7, 20]: 85
- Plant response rating, Nutsedge, Yellow [7, 21]: 95
- Nutsedge, Yellow plant response rating [7, 22]: 90
- Nutsedge, Yellow plant response rating [7, 23]: 85
- Plant response rating, Pigweed [8, 16]: 70
- Pigweed plant response rating [8, 17]: 100
- Plant response rating, Pigweed [8, 18]: 100
- Plant response rating, Pigweed [8, 19]: 70
- Plant response rating, Pigweed [8, 20]: 98
- Plant response rating, Pigweed [8, 21]: 100
- Pigweed plant response rating [8, 22]: 100
- Pigweed plant response rating [8, 23]: 75
- Plant response rating, Soybean (soybean (Glycine max); [16]): 40
- Soybean plant response rating (soybean (Glycine max); [17]): 40
- Plant response rating, Soybean (soybean (Glycine max); [18]): 70
- Plant response rating, Soybean (soybean (Glycine max); [19]): 0
- Plant response rating, Soybean (soybean (Glycine max); [20]): 55
- Plant response rating, Soybean (soybean (Glycine max); [21]): 75
- Soybean plant response rating (soybean (Glycine max); [22]): 80
- Soybean plant response rating (soybean (Glycine max); [23]): 55
- Plant response rating, Velvetleaf [9, 16]: 85
- Velvetleaf plant response rating [9, 17]: 90
- Plant response rating, Velvetleaf [9, 18]: 100
- Plant response rating, Velvetleaf [9, 19]: 40
- Plant response rating, Velvetleaf [9, 20]: 85
- Plant response rating, Velvetleaf [9, 21]: 95
- Velvetleaf plant response rating [9, 22]: 100
- Velvetleaf plant response rating [9, 23]: 98
- Plant response rating, Waterhemp [10, 16]: 95
- Waterhemp plant response rating [10, 17]: 100
- Plant response rating, Waterhemp [10, 18]: 100
- Plant response rating, Waterhemp [10, 19]: 85
- Plant response rating, Waterhemp [10, 20]: 98
- Plant response rating, Waterhemp [10, 21]: 98
- Waterhemp plant response rating [10, 22]: 100
- Waterhemp plant response rating [10, 23]: 100

Compound: Cc1nn(C)c(=O)c(-c2c([N+](=O)[O-])ccc3ccccc23)c1O [Compound 165]
- Plant response rating, Corn (corn (Zea mays) [1]; [24]): 0
- Plant response rating, Corn (corn (Zea mays) [1]; [12]): 20
- Plant response rating, Foxtail, Giant [2, 25]: 20
- Plant response rating, Foxtail, Giant [2, 14]: 50
- Plant response rating, Foxtail, Giant [2, 26]: 10
- Plant response rating, Foxtail, Giant [2, 15]: 40
- Plant response rating, Ryegrass, Italian [3, 25]: 80
- Plant response rating, Ryegrass, Italian [3, 14]: 90
- Plant response rating, Ryegrass, Italian [3, 26]: 40
- Plant response rating, Ryegrass, Italian [3, 15]: 100
- Plant response rating, Wheat [4, 24]: 0
- Plant response rating, Wheat [4, 12]: 0
- Plant response rating, Blackgrass [5, 16]: 5
- Blackgrass plant response rating [5, 17]: 15
- Plant response rating, Blackgrass [5, 27]: 25
- Blackgrass plant response rating [5, 23]: 20
- Plant response rating, Corn (corn (Zea mays) [6]; [16]): 0
- Corn plant response rating (corn (Zea mays) [6]; [17]): 0
- Plant response rating, Corn (corn (Zea mays) [6]; [27]): 5
- Corn plant response rating (corn (Zea mays) [6]; [23]): 0
- Plant response rating, Nutsedge, Yellow [7, 16]: 20
- Nutsedge, Yellow plant response rating [7, 17]: 30
- Plant response rating, Nutsedge, Yellow [7, 27]: 35
- Nutsedge, Yellow plant response rating [7, 23]: 25
- Plant response rating, Pigweed [8, 16]: 75
- Pigweed plant response rating [8, 17]: 70
- Plant response rating, Pigweed [8, 27]: 85
- Pigweed plant response rating [8, 23]: 75
- Plant response rating, Soybean (soybean (Glycine max); [16]): 10
- Soybean plant response rating (soybean (Glycine max); [17]): 10
- Plant response rating, Soybean (soybean (Glycine max); [27]): 15
- Soybean plant response rating (soybean (Glycine max); [23]): 15
- Plant response rating, Velvetleaf [9, 16]: 20
- Velvetleaf plant response rating [9, 17]: 25
- Plant response rating, Velvetleaf [9, 27]: 50
- Velvetleaf plant response rating [9, 23]: 20
- Plant response rating, Waterhemp [10, 16]: 65
- Waterhemp plant response rating [10, 17]: 70
- Plant response rating, Waterhemp [10, 27]: 75
- Waterhemp plant response rating [10, 23]: 75
